Data published in patent US6743895B1, “Bone stimulating factor” (Osteopharm Inc., priority 1995, dated 2004).
Residues, ends and D or L forms follow the SMILES beside them. No end group written: not given here.

Legend:
[1] = system: ovariectomized rats; assay: Full autopsy after four week administration to ovariectomized rats; type: in vivo, Sprague-Dawley rats; details: 100 μg s.c. every 24 hours for 28 days
Description: The six ovariectomized rats were injected subcutaneously with 100 μl of a 0.1% acetic acid solution containing 100 μg of the chemically synthesized peptide (SEQ ID NO:1) every 24 hours for 28 days. On day 25, a tetracycline hydrochloride solution was injected intramuscularly into each rat so as to give 24 mg per Kg of body weight, as described previously. On day 27, a second dose of tetracycline hydrochloride was injected and the rats were sacrificed on the 28th day.
Post-mortem blood was taken by cardiac puncture and serum frozen until analyzed. A full autopsy was performed on each rat.

[2] = system: parathyroidectomized rats; assay: Histological evaluation of selected tissues (toxicity experiments); type: in vivo, rat; details: miniosmotic pump, about 25 μg per day
Description: A miniosmotic pump (Alzet) was loaded with about 1.5 ml of the chemically synthesized peptide having an N-terminal acetyl group (SEQ ID NO:2) in 0.1% acetic acid so as to give a calculated daily delivery of about 25 μg per day. A pump was implanted under the subcutaneous fascia of the dorsal aspect of the left side of the thorax of five rats which had been parathyroldectomized seven days earlier. Five similarly parathyroldectomized rats received similar implants containing only 0.1% acetic acid. Five intact rats were also used as controls.
Histological evaluation of selected tissues of the five rats of each of the groups indicated in Table One were carried out microscopically.

[3] = system: ovariectomized rats; assay: Autopsy after eight week administration to ovariectomized rats; type: in vivo, rat; details: 100 μg s.c. every 24 hours for eight weeks
Description: Eight weeks after ovariectomization, five ovariectomized rats were injected subcutaneously with 100 μl of a 0.1% acetic acid solution containing 100 μg of the chemically synthesized peptide in which the N-terminal amino group was modified with an acetyl group (SEQ ID NO:2). This was done every 24 hours for eight weeks. On day 54, a tetracycline hydrochloride solution was injected intramuscularly into the right gluteus maximus of each rat so as to give 24 mg per Kg of body weight, as described previously. On day 56, a second dose of tetracycline hydrochloride was injected and the rats were sacrificed on the 57th day.
Post-mortem blood was taken by cardiac puncture and serum frozen until analyzed. An autopsy was performed on each rat.

[4] = system: rats; assay: Bone mineral apposition rate in intact rats after subcutaneous injection of polypeptide, tetracycline labelling; type: in vivo, Sprague-Dawley rats
Description: Experiments were carried out on three groups of six rats weighing between 295 and 320 g. A 1 mg per ml solution of the modified peptide (SEQ ID NO:3) was prepared in 0.1% acetic acid. A 1 mg per ml solution of the normal peptide (SEQ ID NO:1) was prepared in 0.1% acetic acid. Each rat of a first of the groups had subcutaneously injected into its right thigh 0.1 ml of the modified peptide solution. Similarly, each rat of the second group was injected with 0.1 ml of the normal peptide solution. Each rat of the third group, the control group, was injected with 0.1 ml of 0.1% acetic acid solution. Immediately following these injections, each rat was injected intramuscularly with 24 mg per Kg body weight of tetracycline hydrochloride dissolved in 0.5 ml of water. A second dose of tetracycline hydrochloride was administered 48 hours later. The animals were sacrificed 24 hours after the second dose by CO2 narcosis. The lower metaphysis of the right femur was dissected out and fixed in a 10% aqueous solution of formaldehyde buffered at pH 7.2 by acetate buffer. Bone sections were prepared for measurement as described above.
Sprague-Dawley rats were used as test animals to determine bone mineral apposition rate, as described above. Male rats having weights between 280 and 380 g were subject to subcutaneous injection after one week of acclimatization. Each animal was injected with 200 μl of a 0.1% acetic acid test solution, solutions having been prepared at concentrations to obtain a dosage of about 25 nmol of polypeptide per animal. Each test dose was immediately followed by intramuscular injection of 24 mg per Kg of body weight of tetracycline hydrochloride. A second injection of tetracycline was made 48 hours later.
Bone mineral apposition rates were determined by measurements of the lower metaphysis of the right femur, as described previously. Results obtained in the two sets of experiments are summarized in Tables Seven and Eight and graphically depicted in FIGS. 8 and 9.
Bone mineral apposition rates were again determined by measurement of the lower metaphysis of the right femur. Results obtained are summarized in Table Nineteen and graphically depicted in FIG. 12. […]
In a final set of experiments, a polypeptide having the ninth amino acid, cysteine, replaced by the amino acid tyrosine, SEQ ID NO:43, was synthesized and tested for bone stimulatory activity. Four rats (about 300 grams) were each administered with 100 nmoles of material (in 400 μl 20 mM acetic acid solution) by subcutaneous injection along with tetracycline (5 mg per animal in 400 μl water), as described above. A second dosage of tetracycline was administered 48 hours later and the animals sacrificed 24 hours after that. The lower metaphysis of the right femur was examined to determine the bone mineral apposition rate. For comparison, experiments were performed using a control in which no compound was present in the acetic acid solution.

[5] = system: ovariectomized rats; assay: Bone mineral (calcium) content by DEXA in ovariectomized rats; type: in vivo, rat; details: 25 nmoles s.c. each day
Description: Ovariectomies were performed on rats as described above. A 0.1% acetic acid solution containing 25 nmoles of the polypeptide was administered subcutaneously to each rat each day for the duration of the experiment. […] Another group of rats was treated for eight weeks beginning eight weeks after ovariectomization. Rats were sacrificed at the end of the treatment period and dissected and post mortem assessment of bone mineral content was carried out. The lumbar spines L1-L4 were cleaned with a power nylon brush to remove the attached muscle. They were placed ventral side down under 3 cm of distilled water in a polypropylene container and scanned by a dual energy x-ray absorptometer (DEXA). Hologic 100, to determine the calcium content in grams. The right femur of each rat was also dissected out intact and cleared of the attached muscles with a power nylon brush. It was scanned dorsal side down under 3 cm of distilled water by DEXA. Four regions of the femur were scanned, as indicated in FIGS. 10 and 11: A, proximal end; B, diaphysis; C, distal end; and D, neck. The bone mineral (i.e., calcium) content in grams was estimated in the four zones of the femur based on absorption and using an internal standard of the machine.

[6] = Stability of dissolved polypeptides (capillary electrophoresis, RP-HPLC); type: physicochemical; details: 37° C.
Description: Each of the polypeptides having the sequences identified as SEQ ID NO: 7 and 24 was dissolved in 5 mM acetic acid to a final concentration of 1 mg/ml and incubated at 37° C. The peptide compositions were analyzed weekly by capillary electrophoresis on a P/ACE 6000 system (Beckman) using 50 mM sodium phosphate pH 2.5 as the running buffer on a 57 cm long×75 μm internal diameter capillary. The incubated peptide (20 μl) was diluted with 80 μl of running buffer, placed in a 500 μl vial prior to injection onto the P/ACE using pressure for 20 seconds. Following electrophoresis of the incubated peptide at 30 kV for 15 min a second run was carried out using freshly dissolved peptide as a control.
Each of the polypeptides was dissolved in 20 mM sodium phosphate pH 3.0, 20 mM ammonium acetate pH 4.0, 20 mM ammonium acetate pH 5.0, 20 mM MES pH 6.0, 20 mM sodium phosphate pH 7.0, 20 mM sodium phosphate pH 7.5, 20 mM sodium phosphate pH 8.0, 20 mM ammonium acetate pH 8.5 or 20 mM ammonium acetate pH 9.5 to a final concentration of 1 mg/ml. The peptide was incubated at 37° C. and the peptide assayed weekly by separation on P/ACE as described above. Some samples were separated by RP-HPLC and the isolated peaks subjected to mass spectroscopic analysis.
The protected polypeptide identified as SEQ ID NO:24 was dissolved in 20 mM or 250 mM ammonium acetate pH 4.5 to a final concentration of 1 mg/ml. In some experiments the buffer was supplemented with 20 mM EDTA. The peptide solution was then incubated at −70° C., −20° C., 4° C. or room temperature (22° C.). Samples were assayed weekly by electrophoresis on the P/ACE as described above and/or by RP-HPLC.
The stability of each of the polypeptides having the amino acid sequences identified as SEQ ID NOs: 25, 26 and 27 was tested as described above.

In the case of `CC[C@H](C)[C@H](NC(=O)CN)C(=O)NCC(=O)N[C@@H](CCCCN)C(=O)N[C@@H](CCCNC(=N)N)C(=O)N[C@H](C(=O)N[C@@H](CC(N)=O)C(=O)N[C@@H](CCC(=O)O)C(=O)N[C@@H](Cc1c[nH]cn1)C(=O)N[C@H](C(=O)N[C@@H](C)C(=O)N[C@@H](CC(=O)O)C(=O)N[C@@H](CS)C(=O)N[C@@H](CCCCN)C(=O)N[C@H](C(=O)N[C@@H](CCCCN)C(=O)N1CCC[C@H]1C(=O)N[C@@H](CC(N)=O)C(=O)N[C@H](C(=O)N[C@@H](CC(C)C)C(=O)N[C@@H](Cc1c[nH]cn1)C(=O)N[C@@H](CCCCN)C(=O)N[C@@H](CCCCN)C(=O)N[C@@H](C)C(=O)N[C@@H](C)C(=O)N[C@@H](CCC(=O)O)C(=O)N[C@H](C(=O)N[C@@H](CC(C)C)C(=O)N[C@@H](CCSC)C(=O)N[C@H](C(=O)N[C@@H](CC(C)C)C(=O)N[C@@H](CC(=O)O)C(=O)N[C@@H](CCC(N)=O)C(=O)N[C@@H](CC(N)=O)C(=O)N[C@@H](CCC(N)=O)C(=O)N1CCC[C@H]1C(=O)O)C(C)C)[C@@H](C)O)[C@@H](C)O)[C@@H](C)CC)[C@@H](C)O)[C@@H](C)O` [SEQ ID NO:1] (H-GIGKRTNEHTADCKIKPNTLHKKAAETLMVLDQNQP-OH), the Full autopsy findings [1] is reported as “No ill effects were observed”.

In the case of `CC[C@H](C)[C@H](NC(=O)CNC(C)=O)C(=O)NCC(=O)N[C@@H](CCCCN)C(=O)N[C@@H](CCCNC(=N)N)C(=O)N[C@H](C(=O)N[C@@H](CC(N)=O)C(=O)N[C@@H](CCC(=O)O)C(=O)N[C@@H](Cc1c[nH]cn1)C(=O)N[C@H](C(=O)N[C@@H](C)C(=O)N[C@@H](CC(=O)O)C(=O)N[C@@H](CS)C(=O)N[C@@H](CCCCN)C(=O)N[C@H](C(=O)N[C@@H](CCCCN)C(=O)N1CCC[C@H]1C(=O)N[C@@H](CC(N)=O)C(=O)N[C@H](C(=O)N[C@@H](CC(C)C)C(=O)N[C@@H](Cc1c[nH]cn1)C(=O)N[C@@H](CCCCN)C(=O)N[C@@H](CCCCN)C(=O)N[C@@H](C)C(=O)N[C@@H](C)C(=O)N[C@@H](CCC(=O)O)C(=O)N[C@H](C(=O)N[C@@H](CC(C)C)C(=O)N[C@@H](CCSC)C(=O)N[C@H](C(=O)N[C@@H](CC(C)C)C(=O)N[C@@H](CC(=O)O)C(=O)N[C@@H](CCC(N)=O)C(=O)N[C@@H](CC(N)=O)C(=O)N[C@@H](CCC(N)=O)C(=O)N1CCC[C@H]1C(=O)O)C(C)C)[C@@H](C)O)[C@@H](C)O)[C@@H](C)CC)[C@@H](C)O)[C@@H](C)O` [SEQ ID NO:2] (Ac-GIGKRTNEHTADCKIKPNTLHKKAAETLMVLDQNQP-OH), the “Histological evaluation of selected tissues” value [2] is reported as “No evidence of toxic lesions” and the Autopsy findings [3] is reported as “No obvious pathology was observed”.

With GIGKRTNEHTADCKI [SEQ ID NO:7] the “Mean Bone Apposition Rate” value ([4]; about 125 nmoles of polypeptide per Kg of body weight (Table Twenty)) was 2.18 μm/day, the “Bone mineral apposition rate, Mean” value ([4]; male Sprague-Dawley rats 280-380 g, about 25 nmol per animal s.c., first set (Table Seven)) was 1.41 μm per day and the “Bone Mineral Content Measured in Distal End of Femur, Mean” value ([5]; Administered over 56 Days) was 0.1347 g. For the same molecule, the “Bone Mineral Content Measured in Femoral Diaphysis, Mean” value ([5]; Administered over 56 Days) was 0.2091 g, the “Bone Mineral Content Measured in Femoral Neck, Mean” value ([5]; Administered over 56 Days) was 0.0274 g and the “Bone Mineral Content Measured in Proximal End of Femur, Mean” value ([5]; Administered over 56 Days) was 0.1328 g. The “Bone Mineral Content Measured in Spine L1-L4, Mean” value ([5]; Administered over 56 Days) was 0.4606 g, the “Bone Mineral Content Measured in Distant End of Femur, Mean” value ([5]; Administered over 100 Days) was 0.1424 g and the “Bone Mineral Content Measured in Femoral Diaphysis, Mean” value ([5]; Administered over 100 Days) was 0.2347 g. For the same molecule, the “Bone Mineral Content Measured in Femoral Neck, Mean” value ([5]; Administered over 100 Days) was 0.0351 g, the “Bone Mineral Content Measured in Proximal End of Femur, Mean” value ([5]; Administered over 100 Days) was 0.1411 g and the “Bone Mineral Content Measured in Spine L1-L4, Mean” value ([5]; Administered over 100 Days) was 0.4758 g. The “Stability when dissolved in dilute acids” value ([6]; 5 mM acetic acid, 1 mg/ml, analyzed weekly by capillary electrophoresis) was “degraded overtime” and the “pH at which the peptide was most stable” value ([6]; 20 mM buffers pH 3.0 to 9.5, 1 mg/ml) was 4.5.
